For orientation: IC50 means the midpoint of a concentration-inhibition curve.

Data on eight compounds can be found in patent US20250188042A1, “HETEROCYCLIC COMPOUND, PREPARATION METHOD THEREFOR, AND USE THEREOF” (SICHUAN UNIVERSITY, priority 2023, published 2025).

The subject of the first experiment is SCC cells. The experiment can be described thus: CCK8 proliferation assay on SCC cells (cell line not specified). In kind it is cell-based. As to conditions: SCC cell line not stated (HSC-3 or HSC-4), 48 h, read-out: IC50 against SCC cells. The protocol: (§1) Squamous cell carcinoma cell lines: HSC-3, HSC-4.
(§2) The above two tumor cell lines were cultured in a standardized incubator at 37° C. under 5% CO2; the cells in logarithmic growth phase were digested and counted, followed by seeding in a 96-well plate at 3000 cells/well, and then cultured overnight in an incubator. The stock solution of each compound was prepared using DMSO at a concentration of 10 mM, and diluted sequentially (0, 1.25, 2.5, 5, 10 μM) before treating the cells. The control group was added with the highest concentration of DMSO, and then cultivated continuously in an incubator for 48 h. The CCK8 cell proliferation kit was used to detect the effect of each compound on the proliferation of tumor cells. Moreover, the experimental results of representative compounds were analyzed, and their IC50 values were calculated to evaluate the effect of the compounds on the proliferation of tumor cells.
In general terms: Tetrazolium dyes change colour on reduction, which living cells bring about.
For the compound `Nc1ccn(CCC(=O)Nc2ccc(C34CC5CC(CC(C5)C3)C4)cc2)c(=O)n1` [Compound 24], the IC50 turned out to be 1.48 µM.

`COc1cn(CCC(=O)Nc2ccc(C34CC5CC(CC(C5)C3)C4)cc2)c(=O)n(CCC(=O)Nc2ccc(C34CC5CC(CC(C5)C3)C4)cc2)c1=O` [Compound 14a]: the half-maximal inhibitory concentration (IC50) amounted to 6.18 µM.

In the case of `N#Cc1cn(CCC(=O)Nc2ccc(C34CC5CC(CC(C5)C3)C4)cc2)c(=O)n(CCC(=O)Nc2ccc(C34CC5CC(CC(C5)C3)C4)cc2)c1=O` [Compound 12a], the half-maximal inhibitory concentration (IC50) amounted to 9.54 µM.

For `O=C(CCn1cc(Cl)c(=O)n(CCC(=O)Nc2ccc(C34CC5CC(CC(C5)C3)C4)cc2)c1=O)Nc1ccc(C23CC4CC(CC(C4)C2)C3)cc1` [Compound 16a], the half-maximal inhibitory concentration (IC50) worked out at 9.66 µM.

Regarding `O=C(CCn1cc(I)c(=O)n(CCC(=O)Nc2ccc(C34CC5CC(CC(C5)C3)C4)cc2)c1=O)Nc1ccc(C23CC4CC(CC(C4)C2)C3)cc1` [Compound 20a], the IC50 was 4.86 µM.

Take `O=C(CCn1cc(Br)c(=O)n(CCC(=O)Nc2ccc(C34CC5CC(CC(C5)C3)C4)cc2)c1=O)Nc1ccc(C23CC4CC(CC(C4)C2)C3)cc1` [Compound 18a]: the half-inhibitory concentration (IC50) stood at 4.85 µM.

Turning to `CCc1cn(CCC(=O)Nc2ccc(C34CC5CC(CC(C5)C3)C4)cc2)c(=O)n(CCC(=O)Nc2ccc(C34CC5CC(CC(C5)C3)C4)cc2)c1=O` [Compound 10a], the concentration for half-maximal inhibition (IC50) was 6.18 µM.

The next experiment relates to HSC-3. In words: CCK8 proliferation assay on squamous cell carcinoma cell line HSC-3. In kind it is cell-based. As to conditions: Homo sapiens, first of two lines listed (HSC-3, HSC-4), 48 h, read-out: IC50 against SCC cells (first of two SCC cells). The protocol:
as §1, §2
As for `O=C(CCn1ccc(=O)n(CCC(=O)Nc2ccc(C34CC5CC(CC(C5)C3)C4)cc2)c1=O)Nc1ccc(C23CC4CC(CC(C4)C2)C3)cc1` [Compound 8a], the IC50 was 4.85 µM.

The test system of another experiment is HSC-4. The experiment can be described thus: CCK8 proliferation assay on squamous cell carcinoma cell line HSC-4. In kind it is cell-based. As to conditions: Homo sapiens, second of two lines listed (HSC-3, HSC-4), 48 h, read-out: IC50 against SCC cells (second of two SCC cells). The procedure:
as §1, §2
Turning to `O=C(CCn1ccc(=O)n(CCC(=O)Nc2ccc(C34CC5CC(CC(C5)C3)C4)cc2)c1=O)Nc1ccc(C23CC4CC(CC(C4)C2)C3)cc1` [Compound 8a], the IC50 was 9.87 µM.
